From ChEMBL document CHEMBL3885861, “Open TG-GATES”

Species: Rattus norvegicus
Experiment: Open TG-GATES - Regimen: Single
Type: toxicity, organism-based, Sprague-Dawley
Parameters: regimen Single, gender Male, age 6 weeks
Details: in vivo, po, 0 mg/kg, route gavage, dose level Control; for APTT / Bas / Eos / Fbg / Hb / Ht / Lym / MCHC / MCV / Mono / PT / Plat / RBC / Ret / WBC: tissue Blood; for KIDNEY_L / KIDNEY_R / KIDNEY_TOTAL: tissue Kidney; for LIVER: tissue Liver; for ALP / ALT / AST / BUN / CRE / DBIL / GLC / K / LDH / Na / PL / RALB / TBIL / TC / TG / TP / gamma-GTP: tissue Plasma

O=C1NC(=O)C(c2ccccc2)(c2ccccc2)N1 [PHENYTOIN]
TERMINAL_BW (3 h): 209.3 g | APTT (3 h): 16.8 s | Bas (3 h): 0.4% | Eos (3 h): 0.8% | Fbg (3 h): 267 mg/dL | Hb (3 h): 13.4 g/dL | Ht (3 h): 40.2% | Lym (3 h): 78.6% | MCHC (3 h): 33.3% | MCV (3 h): 62.2 fL | Mono (3 h): 3% | PT (3 h): 13.9 s | Plat (3 h): 116.9 x10_4/uL | RBC (3 h): 646.8 x10_4/ul | Ret (3 h): 8.3% | WBC (3 h): 81.2 x10_2/uL | KIDNEY_L (3 h): 0.9 g | KIDNEY_R (3 h): 0.9 g | KIDNEY_TOTAL (3 h): 1.9 g | LIVER (3 h): 9.6 g | ALP (3 h): 1709.4 IU/L | ALT (3 h): 37 IU/L | AST (3 h): 75.6 IU/L | BUN (3 h): 9.8 mg/dL | CRE (3 h): 0.2 mg/dL | DBIL (3 h): 0.018 mg/dL | GLC (3 h): 177.4 mg/dL | K (3 h): 4.1 meq/L | LDH (3 h): 127.8 IU/L | Na (3 h): 141.6 meq/L | PL (3 h): 145.2 mg/dL | RALB (3 h): 2.5 g/dL | TBIL (3 h): 0.056 mg/dL | TC (3 h): 75.8 mg/dL | TG (3 h): 61.4 mg/dL | TP (3 h): 5.4 g/dL | gamma-GTP (3 h): 1.2 IU/L | TERMINAL_BW (6 h): 207.9 g | APTT (6 h): 16.8 s | Bas (6 h): 0.6% | Eos (6 h): 0.8% | Fbg (6 h): 297.4 mg/dL | Hb (6 h): 13.3 g/dL | Ht (6 h): 39.4% | Lym (6 h): 79.4% | MCHC (6 h): 33.6% | MCV (6 h): 61.5 fL | Mono (6 h): 3% | PT (6 h): 14.1 s | Plat (6 h): 121.6 x10_4/uL | RBC (6 h): 641.4 x10_4/ul | Ret (6 h): 7.5% | WBC (6 h): 97.9 x10_2/uL | KIDNEY_L (6 h): 0.9 g | KIDNEY_R (6 h): 0.9 g | KIDNEY_TOTAL (6 h): 1.8 g | LIVER (6 h): 8.5 g | ALP (6 h): 1520.6 IU/L | ALT (6 h): 34.4 IU/L | AST (6 h): 67.6 IU/L | BUN (6 h): 8.6 mg/dL | CRE (6 h): 0.2 mg/dL | DBIL (6 h): 0.018 mg/dL | GLC (6 h): 184.2 mg/dL | K (6 h): 4.3 meq/L | LDH (6 h): 96.2 IU/L | Na (6 h): 142.2 meq/L | PL (6 h): 139.6 mg/dL | RALB (6 h): 2.5 g/dL | TBIL (6 h): 0.05 mg/dL | TC (6 h): 77.8 mg/dL | TG (6 h): 44.2 mg/dL | TP (6 h): 5.4 g/dL | gamma-GTP (6 h): 1.4 IU/L | TERMINAL_BW (9 h): 205.9 g | APTT (9 h): 15.5 s | Bas (9 h): 0.6% | Eos (9 h): 0.8% | Fbg (9 h): 295.6 mg/dL | Hb (9 h): 13.5 g/dL | Ht (9 h): 40.5% | Lym (9 h): 76.2% | MCHC (9 h): 33.4% | MCV (9 h): 61.1 fL | Mono (9 h): 2.6% | PT (9 h): 13.8 s | Plat (9 h): 126 x10_4/uL | RBC (9 h): 663.4 x10_4/ul | Ret (9 h): 7.6% | WBC (9 h): 79.7 x10_2/uL | KIDNEY_L (9 h): 0.9 g | KIDNEY_R (9 h): 0.9 g | KIDNEY_TOTAL (9 h): 1.8 g | LIVER (9 h): 8.7 g | ALP (9 h): 1437.2 IU/L | ALT (9 h): 29.8 IU/L | AST (9 h): 68.8 IU/L | BUN (9 h): 9.8 mg/dL | CRE (9 h): 0.2 mg/dL | DBIL (9 h): 0.014 mg/dL | GLC (9 h): 177.4 mg/dL | K (9 h): 4.2 meq/L | LDH (9 h): 93.4 IU/L | Na (9 h): 142.4 meq/L | PL (9 h): 131.6 mg/dL | RALB (9 h): 2.5 g/dL | TBIL (9 h): 0.052 mg/dL | TC (9 h): 72.4 mg/dL | TG (9 h): 40 mg/dL | TP (9 h): 5.5 g/dL | gamma-GTP (9 h): 1.6 IU/L | TERMINAL_BW (24 h): 224.3 g | APTT (24 h): 17.7 s | Bas (24 h): 0.4% | Eos (24 h): 1% | Fbg (24 h): 273.4 mg/dL | Hb (24 h): 13.2 g/dL | Ht (24 h): 39.1% | Lym (24 h): 79.8% | MCHC (24 h): 33.7% | MCV (24 h): 62.6 fL | Mono (24 h): 2.2% | PT (24 h): 14.4 s | Plat (24 h): 121.9 x10_4/uL | RBC (24 h): 625.6 x10_4/ul | Ret (24 h): 7.8% | WBC (24 h): 108.2 x10_2/uL | KIDNEY_L (24 h): 1 g | KIDNEY_R (24 h): 1 g | KIDNEY_TOTAL (24 h): 2.1 g | LIVER (24 h): 10.6 g | ALP (24 h): 1864.2 IU/L | ALT (24 h): 42.4 IU/L | AST (24 h): 75.2 IU/L | BUN (24 h): 14.8 mg/dL | CRE (24 h): 0.2 mg/dL | DBIL (24 h): 0.024 mg/dL | GLC (24 h): 187.6 mg/dL | K (24 h): 4 meq/L | LDH (24 h): 95.6 IU/L | Na (24 h): 142.6 meq/L | PL (24 h): 152 mg/dL | RALB (24 h): 2.6 g/dL | TBIL (24 h): 0.042 mg/dL | TC (24 h): 74.8 mg/dL | TG (24 h): 100.2 mg/dL
